Experimental data published in patent US12679804B2, “2-(3-ethynylbenzyl)-substituted heterocycle derivatives and related uses” (CENTESSA PHARMACEUTICALS (UK) LIMITED, priority 2021, dated 2026).
Where no end group is shown, it is not given here.

Columns and labels:
[1] = molecular target: T1, human orexin type 2 receptor (hOX2R) (Homo sapiens, UniProt O43614); experiment: Orexin type 2 receptor agonist activity (FLIPR TETRA intracellular Ca2+ fluorescence); assay type: cell-based; conditions: for EC50: CHO cells expressing hOX2R, area of Ca2+ fluorescence over 2 min, read-out: hOx2 pEC50 (converted); for Emax at 10 µM: value at 10 μM, dilution buffer = 0%, 10 nM human orexin A = 100%, read-out: hOx2 Emax
T1 construct: expressed in transfected cells
T1 sequence (O43614 1-444): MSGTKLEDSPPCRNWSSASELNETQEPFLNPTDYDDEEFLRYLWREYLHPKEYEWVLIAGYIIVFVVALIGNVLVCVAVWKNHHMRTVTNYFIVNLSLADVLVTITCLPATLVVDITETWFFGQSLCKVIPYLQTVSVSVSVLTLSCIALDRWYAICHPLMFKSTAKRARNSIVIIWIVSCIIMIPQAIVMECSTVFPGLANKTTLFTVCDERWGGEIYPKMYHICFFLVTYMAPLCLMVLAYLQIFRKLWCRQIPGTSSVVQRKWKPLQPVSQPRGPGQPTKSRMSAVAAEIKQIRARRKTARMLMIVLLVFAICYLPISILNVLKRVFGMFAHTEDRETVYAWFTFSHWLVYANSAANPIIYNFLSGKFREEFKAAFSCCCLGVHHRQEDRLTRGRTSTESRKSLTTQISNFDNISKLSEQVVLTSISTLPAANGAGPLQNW
Protocol: Stable cell line generation. Obtainment of cells stably expressing either human orexin type 2 or human orexin type 1 receptor: to obtain a stable cell line the Orexin receptor cDNA was inserted into pcDNA3.1(+) plasmid vector and clones identified by G418 drug resistance selection. […] A single clone for OX2R-CHO and OX1R-CHO were grown in bulk and frozen to generate a cell bank for routine screening.
Measurement of orexin type 2 receptor agonist activity. Chinese hamster ovary (CHO) cells expressing human orexin type 2 receptor (hOX2R) or human orexin […] were seeded in each well of 384 well black clear bottom plates (BD Flacon) at 10,000 cells per well and cultured for 24 hr in an Ham's F12 (Gibco) medium containing 10% fetal calf serum (Sigma Aldrich) under the conditions of 37° C., 5% CO2. After removal of the medium, 50 μl of assay buffer 1 (0.1% bovine serum albumin (Sigma Aldrich), 20 mM HEPES (Molecular Dimensions), […] (Sigma Aldrich), 1× Calcium 5 dye (Molecular Devices) in Hank's balanced salt solution (Invitrogen)) was added, and the cells were incubated for 60 min under the conditions of 37° C., 5% CO2. A test compound was dissolved in dimethyl sulfoxide (Sigma Aldrich) to 10 mM, and then diluted with assay buffer 2 (20 mM HEPES, Hank's balanced salt solution, 0.1% bovine serum albumin). For the reaction, a test compound solution (10 μl) was added using Fluorescent Imaging Plate Reader TETRA (FLIPR TETRA: manufactured by Molecular Devices), a fluorescence value (excitation wavelength 488 nm, measurement wavelength 570 nm) of each well was measured every one second for 2 min, and the agonist activity was determined using the area of the fluorescence value as an indicator of intracellular Ca^2+ concentration. The agonist activity of the test compound was calculated assuming that the fluorescence value of the well added with only the dilution buffer was 0% and the fluorescence value of the well added with 10 nM human orexin A (Tocris) buffer was 100%. As used herein, Emax indicates the value at 10 μM concentration when orexin A is converted to a full agonist (maximum value of agonist activity: 100%).

mice = conditions: cited from earlier work
[2] = ICV, 3 nmol, orexin-neuron ablated mice

| Molecule | EC50 [1] [nM] | Emax at 10 µM [1] [%] | other results |
| --- | --- | --- | --- |
| CCS(=O)(=O)N[C@@H]1CCN(C(=O)N2CCC2)[C@@H]1Cc1cccc(C#CC2CC2)c1F (single isomer, unassigned) [Compound 1-15] | > 100 | 70 to 80 |  |
| CCS(=O)(=O)NC1CCN(C(=O)C2CCC2)C1Cc1cccc(C#CC2CC2)c1F (racemic) [Compound 1-19, N-(1-(cyclobutanecarbonyl)-2-(3-(cyclopropylethynyl)-2-fluorobenzyl)pyrrolidin-3-yl)ethanesulfonamide] |  | ≥ 90 |  |
| CS(=O)(=O)N[C@H]1CCN(C(=O)N2CCC2)[C@H]1Cc1cccc(C#CC2CCC2)c1F [Compound 1-7, N-((2S,3S)-1-(azetidine-1-carbonyl)-2-(3-(cyclobutylethynyl)-2-fluorobenzyl)-pyrrolidin-3-yl)methanesulfonamide] |  | ≥ 90 |  |
| CCS(=O)(=O)NC1CCN(C(=O)C(C)(C)O)C1Cc1cccc(C#CC2CC2)c1 (racemic) [Compound 1-21, N-(2-(3-(cyclopropylethynyl)benzyl)-1-(2-hydroxy-2-methylpropanoyl)pyrrolidin-3-yl)ethanesulfonamide] | > 100 | 80 to 90 |  |
| CCS(=O)(=O)N[C@H]1CCN(C(=O)N2CCC2)[C@H]1Cc1cccc(C#CC2CC2)c1F (single isomer, unassigned) [Compound 1-16] | 1 to 10 | ≥ 90 |  |
| CC1(C#Cc2cccc(C[C@H]3[C@@H](NS(C)(=O)=O)CCCN3C(=O)[C@H]3CCO3)c2F)CC1 (single isomer, unassigned) [Compound 1-5] |  | ≥ 90 |  |
| CS(=O)(=O)N[C@H]1CCN(C(=O)[C@H]2CCO2)[C@H]1Cc1cccc(C#CC2(C(F)(F)F)CC2)c1F [Compound 1-2, N-((2S,3S)-2-(2-fluoro-3-((1-(trifluoromethyl)cyclopropyl)ethynyl)benzyl)-1-((R)-oxetane-2-carbonyl)pyrrolidin-3-yl)methanesulfonamide] |  | ≥ 90 |  |
| CCNC(=O)N1CC[C@H](NS(C)(=O)=O)[C@@H]1Cc1cccc(C#CC2(C)CC2)c1F [Compound 1-6, (2S,3S)—N-ethyl-2-(2-fluoro-3-((1-methylcyclopropyl)ethynyl)benzyl)-3-(methylsulfonamido)pyrrolidine-1-carboxamide] |  | ≥ 90 |  |
| CCS(=O)(=O)NC1CCN(C(=O)N2CCC2)C1Cc1cccc(C#CC2CC2)c1F (racemic) [Compound 1-18, N-(1-(azetidine-1-carbonyl)-2-(3-(cyclopropylethynyl)-2-fluorobenzyl)pyrrolidin-3-yl)ethanesulfonamide] |  | ≥ 90 |  |
| CCS(=O)(=O)NC1CCN(C(=O)N2CCC2)C1Cc1cccc(C#CC2CC2)n1 (racemic) [Compound 1-17, N-(1-(azetidine-1-carbonyl)-2-((6-(cyclopropylethynyl)pyridin-2-yl)methyl)pyrrolidin-3-yl)ethanesulfonamide] | > 100 | 80 to 90 |  |
| CC1(C#Cc2cccc(C[C@H]3[C@@H](NS(C)(=O)=O)CCN3C(=O)[C@H]3CCO3)c2F)CC1 [Compound 1-1, N-((2S,3S)-2-(2-fluoro-3-((1-methylcyclopropyl)ethynyl)benzyl)-1-((R)-oxetane-2-carbonyl)pyrrolidin-3-yl)methanesulfonamide] |  | ≥ 90 |  |
| orexin A: orexin peptide cleaved from prepro-orexin; 10 nM human orexin A (Tocris) defines 100% agonist activity (QPLPDCCRQKTCSCRLYELLHGAGNHAAGILTL; ends and bridges not checked; cysteine pairing not given here; UniProt O43612 34-66, looked up) |  |  | cataplexy-like behavior (mice; [2]): decreases cataplexy-like behavior; time spent awake (mice; [2]): increase time spent awake |
| CCS(=O)(=O)NC1CCN(C(=O)C(C)C)C1Cc1cccc(C#CC2(C)COC2)c1 (racemic) [Compound 1-9, N-(1-isobutyryl-2-(3-((3-methyloxetan-3-yl)ethynyl)benzyl)pyrrolidin-3-yl)ethane-sulfonamide] | > 100 | ≥ 90 |  |
| CCS(=O)(=O)NC1CCN(C(=O)C(C)C)C1Cc1cccc(C#CC2COC2)c1 (racemic) [Compound 1-10, N-(1-isobutyryl-2-(3-(oxetan-3-ylethynyl)benzyl)pyrrolidin-3-yl)ethanesulfonamide] | > 100 | 70 to 80 |  |
| CC1(C#Cc2cccc(C[C@H]3[C@@H](NS(C)(=O)=O)CCN3C(=O)[C@H]3CCO3)c2)CC1 [Compound 1-3, N-((2S,3S)-2-(3-((1-methylcyclopropyl)ethynyl)benzyl)-1-((R)-oxetane-2-carbonyl)pyrrolidin-3-yl)methanesulfonamide] |  | ≥ 90 |  |
| CCS(=O)(=O)NC1CCN(C(=O)C(C)C)C1Cc1cccc(C#CCOC)c1F (racemic) [Compound 1-11, N-(2-(2-fluoro-3-(3-methoxyprop-1-yn-1-yl)benzyl)-1-isobutyrylpyrrolidin-3-yl)ethanesulfonamide] | > 100 | 70 to 80 |  |
| CCS(=O)(=O)NC1CCN(C(=O)C(C)C)C1Cc1cccc(C#CC2CCCC2)c1 (racemic) [Compound 1-13, N-(2-(3-(cyclopentylethynyl)benzyl)-1-isobutyrylpyrrolidin-3-yl)ethanesulfonamide] | > 100 | ≥ 90 |  |
| CC1(C#Cc2cccc(C[C@@H]3[C@H](NS(C)(=O)=O)CCCN3C(=O)[C@H]3CCO3)c2F)CC1 (single isomer, unassigned) [Compound 1-4] | > 100 | 60 to 70 |  |
| CCS(=O)(=O)NC1CCN(C(=O)C(C)C)C1Cc1cccc(C#CC2CC2)c1 (racemic) [Compound 1-14, N-(2-(3-(cyclopropylethynyl)benzyl)-1-isobutyrylpyrrolidin-3-yl) ethanesulfonamide] | > 100 | ≥ 90 |  |
| CC1(C#Cc2cccc(C[C@H]3[C@@H](NS(C)(=O)=O)CCN3C(=O)N3CCC3)c2F)CC1 [Compound 1-8, N-((2S,3S)-1-(azetidine-1-carbonyl)-2-(2-fluoro-3-((1-methylcyclopropyl)-ethynyl)benzyl)pyrrolidin-3-yl)methanesulfonamide] | 1 to 10 | ≥ 90 |  |
| CCS(=O)(=O)NC1CCN(C(=O)C(C)(C)O)C1Cc1cccc(C#Cc2ccccc2)c1 (racemic) [Compound 1-22, N-(1-(2-hydroxy-2-methylpropanoyl)-2-(3-(phenylethynyl)benzyl)-pyrrolidin-3-yl)ethanesulfonamide] | > 100 | ≥ 90 |  |
| CCS(=O)(=O)NC1CCN(C(=O)C(C)C)C1Cc1cccc(C#CC2CC2)c1F (racemic) [Compound 1-20, N-(2-(3-(cyclopropylethynyl)-2-fluorobenzyl)-1-isobutyrylpyrrolidin-3-yl)ethanesulfonamide] |  | ≥ 90 |  |
| CCS(=O)(=O)NC1CCN(C(=O)C(C)C)C1Cc1cccc(C#CC(C)(C)C)c1 (racemic) [Compound 1-12, N-(2-(3-(3,3-dimethylbut-1-yn-1-yl)benzyl)-1-isobutyrylpyrrolidin-3-yl) ethane-sulfonamide] | > 100 | ≥ 90 |  |
| COC(=O)N1CCC[C@H](NS(C)(=O)=O)[C@@H]1CO[C@H]1CC[C@@H](c2ccccc2)CC1 [TAK-925] |  |  | wakefulness (mice; subcutaneous, WT mice): modestly increases wakefulness |
